Reference: ChEMBL document CHEMBL1201862, “PubChem BioAssay data set” (2004)
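Growth conditions: 96-well plates. Treatment: test compound, 48 hours, 5 concentrations. Analysis: linear interpolation between bracketing concentrations; unreached endpoints set to highest concentration. GI50 is the concentration that inhibits growth by half.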 The source made the active and inactive calls. Cut-off read from the data, not from the text of the source: active = GI50 up to about 1.1 µM and inactive = higher.

Key:
Assay in all cases: NCI-60 cell line screen, 48 h
[1] = test system: A498
[2] = test system: BT-549
[3] = test system: DU-145
[4] = test system: HL-60
[5] = test system: HOP-62
[6] = test system: HOP-92
[7] = test system: Hs-578T
[8] = test system: MCF7
[9] = test system: MDA-MB-231
[10] = test system: MDA-MB-435
[11] = test system: NCI-H226
[12] = test system: NCI-H23
[13] = test system: OVCAR-3
[14] = test system: OVCAR-4
[15] = test system: OVCAR-8
[16] = test system: SF-539
[17] = test system: SN12C
[18] = test system: SR
[19] = test system: UACC-62
[20] = test system: SNB-75

Measured: GI50

Cc1ccc(C(=O)Cc2nc3ncccc3[nH]c2=O)cc1
inactive: [1] > 100 µM | [2] 43.7 µM | [3] 58.2 µM | [4] > 100 µM | [5] 26 µM | [6] 14.6 µM | [7] 13.3 µM | [8] 49.9 µM | [9] 24.9 µM | [10] 18.7 µM | [11] 24.9 µM | [12] 9.29 µM | [13] 40.1 µM | [14] 25.7 µM | [15] 23.6 µM | [16] 30.5 µM | [17] 55.5 µM | [18] 48.5 µM | [19] 49.8 µM

COc1cc(/C=N\N(C)C)cc(/C=N/N(C)C)c1O
inactive: [1] 45.6 µM | [2] 13.4 µM | [3] 68.7 µM | [4] 9.71 µM | [5] 39.3 µM | [6] 6.14 µM | [7] 3.53 µM | [8] > 100 µM | [9] 25.8 µM | [10] 25.9 µM | [11] 15.8 µM | [12] > 100 µM | [13] 17.3 µM | [14] 49.2 µM | [16] 6.03 µM | [17] 14.4 µM | [18] 12.5 µM | [19] 28.1 µM

COc1cccc(C23CCN(C)C(CC(O)C2)C3)c1OC (configuration not stated)
inactive: [1] > 100 µM | [2] > 100 µM | [3] > 100 µM | [4] > 100 µM | [5] > 100 µM | [6] > 100 µM | [7] > 100 µM | [8] > 100 µM | [9] > 100 µM | [10] > 100 µM | [11] > 100 µM | [12] > 100 µM | [13] > 100 µM | [14] > 100 µM | [15] > 100 µM | [16] > 100 µM | [17] > 100 µM | [18] > 100 µM | [19] > 100 µM

Cc1nc(C)c(N2CCN(C(=O)O)CC2)c(O)n1
inactive: [1] > 100 µM | [2] > 100 µM | [3] > 100 µM | [4] > 100 µM | [5] > 100 µM | [6] > 100 µM | [7] > 100 µM | [8] > 100 µM | [9] > 100 µM | [10] > 100 µM | [11] > 100 µM | [12] > 100 µM | [13] > 100 µM | [14] > 100 µM | [15] > 100 µM | [16] > 100 µM | [17] > 100 µM | [18] > 100 µM | [19] > 100 µM

Cc1cccc(/C=N/NC(=S)NC(C)(C)C)n1
inactive: [1] > 100 µM | [2] > 100 µM | [3] 66.8 µM | [4] 85.5 µM | [5] 98.9 µM | [7] > 100 µM | [8] 18.5 µM | [9] 34.6 µM | [10] > 100 µM | [11] 52.4 µM | [12] > 100 µM | [13] 30.8 µM | [14] 62.7 µM | [15] 50.8 µM | [16] > 100 µM | [17] > 100 µM | [20] > 100 µM | [18] 23.7 µM | [19] 66.4 µM

CC(C)(C)c1cc(-c2cc(C(C)(C)C)[nH]n2)[nH]n1
inactive: [1] > 100 µM | [2] > 100 µM | [3] > 100 µM | [4] 46.8 µM | [5] > 100 µM | [6] > 100 µM | [7] > 100 µM | [8] > 100 µM | [9] > 100 µM | [10] > 100 µM | [11] > 100 µM | [12] > 100 µM | [13] > 100 µM | [14] > 100 µM | [16] > 100 µM | [17] > 100 µM | [18] 39.1 µM | [19] > 100 µM
